The record followed here is patent publication US10494410B2, “Inhibitor Peptides of ERK-type MAP kinase” (Universite Pierre Et Marie Curie, priority 2005, dated 2019).

In one series the test system is HEK293 cells. Put plainly: Cell penetration and intracellular localization of FITC-coupled peptide in HEK293 cells (fluorescence, Hoechst nuclei). The settings on record: unlabeled peptide, statement in Example 1; cells not specified. Type of series: cell-based. How it is done: HEK293 cells are placed in the presence of the peptide F2 at various concentrations (1 mM stock solution in distilled water, then dilutions to 25, 50 and 100 μM in DMEM culture medium), for 15, 30 or 60 minutes, continuously. The cell nuclei are labeled using Hoechst dye (left panel), and the peptide F2 is visualized by means of the FITC label (middle panel). […] The labeled cell nuclei are shown on the left panels, the peptide F2 on the middle panels and the superimposition of these two labelings is represented on the right panels (panels marked fusion).
HEK293 cells are placed in the presence of the peptide F1 at various concentrations (1 mM stock solution in distilled water, then dilutions to 25, 50 and 100 μM in
DMEM culture medium) for 15, 30 or 60 minutes, continuously. The cell nuclei are labeled using Hoechst dye, and the peptide F1 is visualized by means of the FITC label.

The test system of another series is Elk-1. Put plainly: Serum-induced P-Elk-1 in HEK cells, immunocytochemistry. It is filed as cell-based. Conditions: peptide 10 μM for 40 minutes, serum 20 minutes. How it is done:
HEK cells are placed in the presence of the peptide P2 (FIG. 4, middle panels) or P1 (FIG. 4, right panels), at the concentration of 10 μM for 40 minutes. Nontreated cells (without peptide) are used as controls (FIG. 4, left panels).
The cells are then treated for 20 minutes using fetal calf serum (serum) in order to activate the MAP kinase/ERK pathway.
The corresponding nuclei are visualized by means of the same star on the panels of the third line, marked Hoechst.

Ends that are not written are not given here.

Consider “GRKKRRQRRRPPSPAKLSFQFPSGSAQVHI [Peptide P2]”, for which, in the series with HEK293 cells, the cell penetration result is given as “penetrates into the cells”.

Consider “GRKKRRQRRRCCTLWQFLLHLLLDSPAKLSFQFPSGSAQVHI (sequence which inhibits the interaction between Elk 1 and ERK) [Peptide P1, HIV-TAT penetrating peptide, CC cleavage site, NES of Net, FXFP docking domain of Elk-1]”, for which the “induction of P-Elk-1 (phosphorylation of Elk-1) in response to serum” value in the series with Elk-1 is “not and also in the presence of serum and of the peptide P1”. In the series on HEK293 cells, the cell penetration entry was “penetrates into the cells”.
